Experiments:
[1] = test system: Fe^2+-asc.—induced lipid peroxidation in brain homogenate; experiment: Fe-induced lipid peroxidation inhibition assay in vitro (TBARS); format: biochemical; settings: model system of brain homogenate, 10 mM FeCl3 and 10 mM ascorbic acid
Description: Malondialdehyde as a marker of lipid peroxidation was determined by the formation of endogenous lipid peroxidation products, reacting with 2-thiobarbituric acid (TBARS), and detected spectrophotometrically (λmax = 532 nm) adapted by Mileva et al.. The method is based on the reaction of thiobarbituric acid (TBA) with the final products of lipids oxidation and formation of malondialdehyde (MDA). […] After that to the samples was added 0.6 mL a mixture of trichloroacetic acid (TCA)—TCA:HCl:TBA in 2:1:2 ratio and boiled in a water bath. After cooling and centrifugation at 3000 nrp the obtained color complex was read spectrophotometrically at A532 nm against the appropriate blank. The results were expressed in percentage inhibition of lipid peroxidation (received MDA per mg protein content from the control).
(§1) All data are presented as IC50, which gave 50% inhibition of the activities and compared against the activity of Trolox—a common antioxidant, at the same concentrations.

DPPH assay = settings: 0.1 mM DPPH in methanol, 30 min
Description: DPPH (2,2′-diphenyl-1-picrylhydrazyl radical) assay analysis of pure compounds was conducted by the method described by Brand-Williams et al.. First, 500 μL of the test solutions were added to 500 μL of a freshly prepared solution of 0.1 mM DPPH in methanol and incubated in the dark for 30 min. Then the absorbance at 517 nm (A517) was measured against a mixture of DPPH solution and methanol (1:1) as a control.
as §1

ABTS•+ assay = settings: 15 min at 37 °C
Description: ABTS (2,2′-azino-bis (3-ethylbenzthiazoline-6-sulphonic acid) (7.0 mM) was mixed with potassium persulfate (2.45 mM) to obtain the cationic radical (ABTS•+) The solution was diluted in methanol (2 mL ABTS•+ + 58 mL methanol). The absorption at 743 nm of the resulting working solution was 1.1 ± 0.02 AU. Then, 1.425 mL of ABTS•+ working solution was added to 75 μL of the test drugs, and the absorption at 743 nm was measured after 15 min of incubation at 37 °C against methanol. A blank containing 75 μL of water instead of the test extract also was measured against methanol.
as §1

Cc1c(C)c2c(c(C)c1O)CCC(C)(C(=O)O)O2 (stereo not drawn) [Trolox, 6-hydroxy-2,5,7,8-tetramethylchroman-2-carboxylic acid, reference compound]
Fe^2+-asc.—Induced LP in Liver, IC50 [1]: 18.2 mg/mL
DPPH Scavenging, IC50 (DPPH assay): 8.92 mg/mL
ABTS Scavenging, IC50 (ABTS•+ assay): 24.8 mg/mL

— paper PMC9862026, “In Vivo Toxicity, Redox-Modulating Capacity and Intestinal Permeability of Novel Aroylhydrazone Derivatives as Anti-Tuberculosis Agents” (Pharmaceutics, 2022)
